{"source": "patent US20230002320A1", "about": "“COMPOUNDS AND COMPOSITIONS FOR TREATING CONDITIONS ASSOCIATED WITH STING ACTIVITY” (IFM Due, Inc., priority 2019, published 2023)", "target": "hSTING (Homo sapiens, UniProt Q86WV6)", "sequence (Q86WV6 whole entry R71H/G230A/H232R/R293Q, form open)": "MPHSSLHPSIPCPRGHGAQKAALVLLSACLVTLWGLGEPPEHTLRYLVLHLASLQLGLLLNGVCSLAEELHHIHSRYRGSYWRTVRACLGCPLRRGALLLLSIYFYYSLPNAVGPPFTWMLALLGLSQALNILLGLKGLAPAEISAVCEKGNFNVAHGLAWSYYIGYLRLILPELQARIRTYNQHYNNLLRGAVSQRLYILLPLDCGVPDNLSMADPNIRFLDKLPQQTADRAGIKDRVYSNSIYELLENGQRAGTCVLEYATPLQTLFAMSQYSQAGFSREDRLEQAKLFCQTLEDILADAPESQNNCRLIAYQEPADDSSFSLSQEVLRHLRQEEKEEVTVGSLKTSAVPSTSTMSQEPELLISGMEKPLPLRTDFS", "test": "STING reporter assay (luciferase) in THP1-Dual KO-IFNAR2 cells activated with 2'3' cGAMP", "type": "cell-based", "conditions": "15 μM 2'3' cGAMP, 24 h", "experimental": "STING pathway activation by the compounds described herein was measured using THP1-Dual™ cells (KO-IFNAR2).\nTHP1-Dual™ KO-IFNAR2 Cells (obtained from invivogen) were maintained in RPMI, 10% FCS, 5 ml P/S, 2 mM L-glut, 10 mM Hepes, and 1 mM sodium pyruvate. Compounds were spotted in empty 384 well tissue culture plates (Greiner 781182) by Echo for a final concentration of 0.0017-100 μM. Cells were plated into the TC plates at 40 μL per well, 2×10E6 cells/mL. For activation with STING ligand, 2′3′ cGAMP (MW 718.38, obtained from Invivogen), was prepared in Optimem media.\nThe following solutions were prepared for each 1×384 plate: • Solution A: 2 mL Optimem with one of the following stimuli: • 60 uL of 10 mM 2′3′ cGAMP ->150 μM stock • Solution B: 2 mL Optimem with 60 μL Lipofectamine 2000->Incubate 5 min at RT\n2 mL of solution A and 2 ml Solution B was mixed and incubated for 20 min at room temperature (RT). 20 uL of transfection solution (A+B) was added on top of the plated cells, with a final 2′3′ cGAMP concentration of 15 μM. The plates were then centrifuged immediately at 340 g for 1 minute, after which they were incubated at 37° C., 5% CO2, >98% humidity for 24 h. Luciferase reporter activity was then measured. EC50 values were calculated by using standard methods known in the art.\n(§1) Luciferase reporter assay: 10 μL of supernatant from the assay was transferred to white 384-plate with flat bottom and squared wells. one pouch of QUANTI-Luc™ Plus was dissolved in 25 mL of water. 100 μL of QLC Stabilizer per 25 mL of QUANTI-Luc™ Plus solution was added. 50 μL of QUANTI-Luc™ Plus/QLC solution per well was then added. Luminescence was measured on a Platereader (e.g., Spectramax I3X (Molecular Devices GF3637001)).\nLuciferase reporter activity was then measured. EC50 values were calculated by using standard methods known in the art.\nas §1, with “squared wells,” for “squared wells.”, “Luminescence is” for “Luminescence was”"}
{"molecule": "O=C(Nc1ccc(C(F)(F)F)cc1)Nc1c[nH]c2ccc(-c3ccc(F)c(F)c3)cc12", "note": "[Compound 241]", "values": [{"measurement": "EC50", "value": "1000 to 5000", "unit": "nM"}]}
{"molecule": "CC(C)c1ccc(-c2ccc3[nH]cc(NC(=O)Nc4ccc(C(F)(F)F)cc4)c3c2)cc1", "note": "[Compound 223, 1-(5-(4-isopropylphenyl)-1H-indol-3-yl)-3-(4-(trifluoromethyl)phenyl)urea]", "values": [{"measurement": "EC50", "value": "200 to 1000", "unit": "nM"}]}
{"molecule": "N#Cc1csc(-c2ccc3[nH]cc(NC(=O)Nc4ccc(C(F)(F)F)cc4)c3c2)c1", "note": "[Compound 216]", "values": [{"measurement": "EC50", "value": "40 to 200", "unit": "nM"}]}
{"molecule": "CC(C)(C)Oc1ccc(-c2ccc3[nH]cc(NC(=O)Nc4ccc(C(F)(F)F)cc4)c3c2)cc1", "note": "[Compound 288, 1-(5-(4-(tert-butoxy)phenyl)-1H-indol-3-yl)-3-(4-(trifluoromethyl)phenyl)urea]", "values": [{"measurement": "EC50", "value": "200 to 1000", "unit": "nM"}]}
{"molecule": "O=C(Nc1ccc(C(F)(F)F)cc1)Nc1c[nH]c2ccc(-c3cc(Cl)nc(Cl)c3)cc12", "note": "[Compound 227]", "values": [{"measurement": "EC50", "value": "200 to 1000", "unit": "nM"}]}
{"molecule": "CN(C)C(=O)c1ccc(-c2ccc3[nH]cc(NC(=O)Nc4ccc(C(F)(F)F)cc4)c3c2)cc1", "note": "[Compound 219]", "values": [{"measurement": "EC50", "value": "200 to 1000", "unit": "nM"}]}
{"molecule": "CCCCCCc1ccc(-c2ccc3[nH]cc(NC(=O)Nc4ccc(C(F)(F)F)cc4)c3c2)cc1", "note": "[Compound 211, 1-(5-(4-hexylphenyl)-1H-indol-3-yl)-3-(4-(trifluoromethyl)phenyl)urea]", "values": [{"measurement": "EC50", "value": "200 to 1000", "unit": "nM"}]}
{"molecule": "CC(=O)c1ccc(-c2ccc3[nH]cc(NC(=O)Nc4ccc(C(F)(F)F)cc4)c3c2)s1", "note": "[Compound 231]", "values": [{"measurement": "EC50", "value": "200 to 1000", "unit": "nM"}]}
{"molecule": "O=C(Nc1ccc(C(F)(F)F)cc1)Nc1c[nH]c2ccc(-c3cccc4cccnc34)cc12", "note": "[Compound 224, 1-(5-(quinolin-8-yl)-1H-indol-3-yl)-3-(4-(trifluoromethyl)phenyl)urea]", "values": [{"measurement": "EC50", "value": "1000 to 5000", "unit": "nM"}]}
{"molecule": "O=C(Nc1ccc(C(F)(F)F)cc1)Nc1c[nH]c2ccc(-c3cc(F)cc(F)c3)cc12", "note": "[Compound 240]", "values": [{"measurement": "EC50", "value": "200 to 1000", "unit": "nM"}]}
{"molecule": "O=C(Nc1ccc(C(F)(F)F)cc1)Nc1c[nH]c2ccc(-c3ccc(OC(F)F)cc3)cc12", "note": "[Compound 218]", "values": [{"measurement": "EC50", "value": "200 to 1000", "unit": "nM"}]}
{"molecule": "O=C(Nc1ccc(C(F)(F)F)cc1)Nc1c[nH]c2ccc(-c3cncc(Cl)c3)cc12", "note": "[Compound 229]", "values": [{"measurement": "EC50", "value": "200 to 1000", "unit": "nM"}]}
{"molecule": "O=C(Nc1ccc(C(F)(F)F)cc1)Nc1c[nH]c2ccc(-c3ccc(CO)c(F)c3)cc12", "note": "[Compound 127, 1-(5-(3-fluoro-4-(hydroxymethyl)phenyl)-1H-indol-3-yl)-3-(4-(trifluoromethyl)phenyl)urea]", "values": [{"measurement": "EC50", "value": "200 to 1000", "unit": "nM"}]}
{"molecule": "CC(C)n1cc(-c2ccc3[nH]cc(NC(=O)Nc4ccc(C(F)(F)F)cc4)c3c2)cn1", "note": "[Compound 104, 1-(5-(1-isopropyl-1H-pyrazol-4-yl)-1H-indol-3-yl)-3-(4-(trifluoromethyl)phenyl)urea]", "values": [{"measurement": "EC50", "value": "40 to 200", "unit": "nM"}]}
{"molecule": "O=C(Nc1ccc(C(F)(F)F)cc1)Nc1c[nH]c2ccc(-c3cnn(CC4CC4)c3)cc12", "note": "[Compound 235]", "values": [{"measurement": "EC50", "value": "40 to 200", "unit": "nM"}]}
{"molecule": "O=C(Nc1ccc(C(F)(F)F)cc1)Nc1c[nH]c2ccc(-c3ccc(F)cc3F)cc12", "note": "[Compound 242]", "values": [{"measurement": "EC50", "value": "1000 to 5000", "unit": "nM"}]}
{"molecule": "O=C(Nc1ccc(C(F)(F)F)cc1)Nc1c[nH]c2ccc(-c3cnn(-c4ccccc4)c3)cc12", "note": "[Compound 234]", "values": [{"measurement": "EC50", "value": "40 to 200", "unit": "nM"}]}
{"molecule": "CN(C)C(=O)c1ccc(-c2ccc3[nH]cc(NC(=O)Nc4ccc(C(F)(F)F)cc4)c3c2)c(F)c1", "note": "[Compound 215]", "values": [{"measurement": "EC50", "value": "200 to 1000", "unit": "nM"}]}
{"molecule": "O=C(Nc1ccc(C(F)(F)F)cc1)Nc1c[nH]c2ccc(-c3cccc4ncccc34)cc12", "note": "[Compound 221, 1-(5-(quinolin-5-yl)-1H-indol-3-yl)-3-(4-(trifluoromethyl)phenyl)urea]", "values": [{"measurement": "EC50", "value": "200 to 1000", "unit": "nM"}]}
{"molecule": "CC(C)n1cc(-c2cc3c(NC(=O)Nc4ccc(C(F)(F)F)cc4)c[nH]c3cc2F)cn1", "note": "[Compound 213]", "values": [{"measurement": "EC50", "value": "200 to 1000", "unit": "nM"}]}
{"molecule": "O=C(Nc1ccc(C(F)(F)F)cc1)Nc1c[nH]c2ccc(-c3cccc(Cl)c3)cc12", "note": "[Compound 226]", "values": [{"measurement": "EC50", "value": "200 to 1000", "unit": "nM"}]}
{"molecule": "O=C(Nc1ccc(C(F)(F)F)cc1)Nc1c[nH]c2ccc(-c3cccnc3)cc12", "note": "[Compound 230]", "values": [{"measurement": "EC50", "value": "200 to 1000", "unit": "nM"}]}
{"molecule": "CC(C)n1cc(-c2ccc3[nH]cc(NC(=O)Nc4ccc(C5CCCCC5)nc4)c3c2)cn1", "note": "[Compound 243]", "values": [{"measurement": "EC50", "value": "200 to 1000", "unit": "nM"}]}
{"molecule": "COc1cccc(-c2ccc3[nH]cc(NC(=O)Nc4ccc(C(F)(F)F)cc4)c3c2)c1", "note": "[Compound 225]", "values": [{"measurement": "EC50", "value": "200 to 1000", "unit": "nM"}]}
{"molecule": "CCn1cc(-c2ccc3[nH]cc(NC(=O)Nc4ccc(C(F)(F)F)cc4)c3c2)cn1", "note": "[Compound 237]", "values": [{"measurement": "EC50", "value": "40 to 200", "unit": "nM"}]}
{"molecule": "CCCc1ccc(-c2ccc3[nH]cc(NC(=O)Nc4ccc(C(F)(F)F)cc4)c3c2)cc1", "note": "[Compound 238]", "values": [{"measurement": "EC50", "value": "1000 to 5000", "unit": "nM"}]}
{"molecule": "N#CCCn1cc(-c2ccc3[nH]cc(NC(=O)Nc4ccc(C(F)(F)F)cc4)c3c2)cn1", "note": "[Compound 232]", "values": [{"measurement": "EC50", "value": "200 to 1000", "unit": "nM"}]}
{"molecule": "O=C(Nc1ccc(C(F)(F)F)cc1)Nc1c[nH]c2ccc(-c3ccccc3)cc12", "note": "[Compound 101, 1-(5-phenyl-1H-indol-3-yl)-3-(4-(trifluoromethyl)phenyl)urea]", "values": [{"measurement": "EC50", "value": "200 to 1000", "unit": "nM"}]}
{"molecule": "CC(C)(O)Cn1cc(-c2ccc3[nH]cc(NC(=O)Nc4ccc(C(F)(F)F)cc4)c3c2)cn1", "note": "[Compound 297, 1-(5-(1-(2-hydroxy-2-methylpropyl)-1H-pyrazol-4-yl)-1H-indol-3-yl)-3-(4-(trifluoromethyl)phenyl)urea]", "values": [{"measurement": "EC50", "value": "200 to 1000", "unit": "nM"}]}
{"molecule": "O=C(Nc1ccc(C(F)(F)F)cc1)Nc1c[nH]c2ccc(-c3ccc(Cl)c(Cl)c3)cc12", "note": "[Compound 239]", "values": [{"measurement": "EC50", "value": "1000 to 5000", "unit": "nM"}]}
{"molecule": "CC(C)(C#N)c1ccc(-c2ccc3[nH]cc(NC(=O)Nc4ccc(C(F)(F)F)cc4)c3c2)cc1", "note": "[Compound 217]", "values": [{"measurement": "EC50", "value": "5000 to 100000", "unit": "nM"}]}
{"molecule": "COCCn1cc(-c2ccc3[nH]cc(NC(=O)Nc4ccc(C(F)(F)F)cc4)c3c2)cn1", "note": "[Compound 236]", "values": [{"measurement": "EC50", "value": "200 to 1000", "unit": "nM"}]}
{"molecule": "O=C(Nc1ccc(C(F)(F)F)cc1)Nc1c[nH]c2ccc(-c3c(F)cccc3F)cc12", "note": "[Compound 222]", "values": [{"measurement": "EC50", "value": "1000 to 5000", "unit": "nM"}]}
{"molecule": "Cn1ccc(-c2ccc3[nH]cc(NC(=O)Nc4ccc(C(F)(F)F)cc4)c3c2)n1", "note": "[Compound 214, 1-(5-(1-methyl-1H-pyrazol-3-yl)-1H-indol-3-yl)-3-(4-(trifluoromethyl)phenyl)urea]", "values": [{"measurement": "EC50", "value": "1000 to 5000", "unit": "nM"}]}
{"molecule": "O=C(Nc1ccc(C(F)(F)F)cc1)Nc1c[nH]c2ccc(-c3cccc(OC(F)(F)F)c3)cc12", "note": "[Compound 220]", "values": [{"measurement": "EC50", "value": "200 to 1000", "unit": "nM"}]}
{"molecule": "Nc1cc(-c2ccc3[nH]cc(NC(=O)Nc4ccc(C(F)(F)F)cc4)c3c2)ccn1", "note": "[Compound 274, 1-(5-(2-aminopyridin-4-yl)-1H-indol-3-yl)-3-(4-(trifluoromethyl)phenyl)urea]", "values": [{"measurement": "EC50", "value": "1000 to 5000", "unit": "nM"}]}
{"molecule": "O=C(Nc1ccc(C(F)(F)F)cc1)Nc1c[nH]c2cc(F)c(-c3cnn(C(F)F)c3)cc12", "note": "[Compound 212, 1-(5-(1-(difluoromethyl)-1H-pyrazol-4-yl)-6-fluoro-1H-indol-3-yl)-3-(4-(trifluoromethyl)phenyl)urea]", "values": [{"measurement": "EC50", "value": "40 to 200", "unit": "nM"}]}
{"molecule": "O=C(Nc1ccc(C(F)(F)F)cc1)Nc1c[nH]c2ccc(-c3ccc(CO)cc3)cc12", "note": "[Compound 282, 1-(5-(4-(hydroxymethyl)phenyl)-1H-indol-3-yl)-3-(4-(trifluoromethyl)phenyl)urea]", "values": [{"measurement": "EC50", "value": "1000 to 5000", "unit": "nM"}]}
{"molecule": "COCc1cncc(-c2ccc3[nH]cc(NC(=O)Nc4ccc(C(F)(F)F)cc4)c3c2)c1", "note": "[Compound 228]", "values": [{"measurement": "EC50", "value": "200 to 1000", "unit": "nM"}]}
